Columns and labels:
PLA2 = PLA2 assay; assay type: biochemical, mouse; conditions: 20 μM compound, soluble protein fraction of peritoneal macrophages; data not shown
Method: PAF-AH and PLA2 activities were determined as previously described ([3]). Briefly, a soluble protein fraction of peritoneal macrophages was incubated with 20 μM of each compound at 37°C for 30 min in a total volume of 0.1 ml. For the PAF-AH assay, the reaction mixture contained 2.5 μg protein, 50 mM Tris-HCl (pH 7.4), 5 mM EDTA, 5 mM 2-mercaptoethanol, and 1 μM d4-PAF. For the PLA2 assay, 10 μg protein was incubated in buffer containing 100 mM Tris-HCl (pH 7.4), 1 mg/ml BSA, 4 mM CaCl2, 1 mM DTT, and 2 μM 16:0/20:4 alkyl-PC. A cytosolic PLA2 inhibitor, pyrrophenone (Sigma-Aldrich), was used as a positive control. The reactions were stopped with 0.27 ml of chloroform/methanol (1:2, v/v), followed by the sequential addition of an internal standard (17:0 LPC or d4-lyso-PAF), 0.11 ml chloroform, and 0.1 ml water. Lipids were extracted using the Bligh and Dyer method ([26]). The PAF-AH and PLA2 activities were measured by detecting d4-lyso-PAF and nonlabeled lyso-PAF, respectively, using LC-MS/MS.

hLPCAT2 = target: T1, hLPCAT2 (Homo sapiens, UniProt Q7L5N7); experiment: kinetic analysis of lyso-PAFAT activity; assay type: biochemical; conditions: lyso-PAFAT activity of hLPCAT2, competitive with acetyl-CoA; Dixon plot, Prism; mcPAF-stimulated microsomes; read-out: Inhibition constant (apparent Ki value)
T1 construct: expressed in transfected cells; host or cells: CHO-S-PAFR cells (microsomal fraction), with or without mcPAF stimulation
T1 sequence (Q7L5N7 1-544): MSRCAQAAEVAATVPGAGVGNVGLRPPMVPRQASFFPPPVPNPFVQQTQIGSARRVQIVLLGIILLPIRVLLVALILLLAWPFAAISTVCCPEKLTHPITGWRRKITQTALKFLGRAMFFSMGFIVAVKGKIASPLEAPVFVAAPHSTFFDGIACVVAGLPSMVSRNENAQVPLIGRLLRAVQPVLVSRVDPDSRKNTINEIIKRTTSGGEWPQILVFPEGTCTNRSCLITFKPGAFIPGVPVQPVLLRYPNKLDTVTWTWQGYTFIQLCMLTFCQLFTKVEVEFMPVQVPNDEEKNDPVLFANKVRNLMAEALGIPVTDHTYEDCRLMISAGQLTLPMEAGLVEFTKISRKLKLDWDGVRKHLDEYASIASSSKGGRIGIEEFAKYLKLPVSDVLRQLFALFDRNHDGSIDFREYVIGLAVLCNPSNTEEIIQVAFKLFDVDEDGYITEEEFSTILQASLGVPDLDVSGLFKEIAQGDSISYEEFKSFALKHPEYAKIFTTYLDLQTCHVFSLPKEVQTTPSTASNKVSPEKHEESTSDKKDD
Method: Microsomal protein fractions (0.5 μg) supplemented with the indicated compound concentrations were added to the reaction mixture containing 100 mM Tris-HCl (pH 7.4), 1 μM CaCl2, 0.015% Tween-20, and two substrates. For acetyltransferase activity, the substrates were 1 mM acetyl-CoA and 5 μM d4-lyso-PAF; for the acyltransferase activity of LPCAT1 or LPCAT2, the substrates were, respectively, palmitoyl-CoA and d31-16:0 LPC or arachidonoyl-CoA and d4-lyso-PAF (all 5 μM). Each lysophospholipid contained fatty acid at the sn-1 position. After incubation at 37°C for 5 min, the reactions were stopped by adding 300 μl methanol containing 17:0 LPC or 14:0/14:0 PC as an internal standard. Deuterium-labeled products were analyzed by LC-MS/MS (Waters, Milford, MA and Thermo Scientific, Waltham, MA).
To investigate the mechanism by which TSI-01 inhibited lyso-PAFAT activity of hLPCAT2, kinetic analysis was performed. CHO-S-PAFR cells overexpressing hLPCAT2 were stimulated with or without mcPAF for 30 s and analyzed for lyso-PAFAT activity in the microsomal fraction. […] Inhibition constant (apparent Ki value) of TSI-01 was also calculated as 30–40 nM using Prism software (Fig. 6D).
Fig. 6. Effects of TSI-01 on kinetics of LPCAT2 enzymatic activity. […]

Compound: CC(C)OC(=O)c1ccc(N2C(=O)C(Cl)=C(Cl)C2=O)cc1 [TSI-01, propan-2-yl 4-(3,4-dichloro-2,5-dioxopyrrol-1-yl)benzoate]
- PLA2 activity (PLA2): not PLA2 activity
- Ki (hLPCAT2): 30 to 40 nM
